The record followed here is patent US6462086B1, “Non-malignant disease treatment with Ras antagonists” (Ramot University Authority for Applied Research and …, priority 1999, dated 2002).

Assay [1] has as its system Ras. The assay can be described thus: Ras expression in rat liver membranes (Western blot). It is filed as in vivo. The procedure:
The levels of Ras proteins in the rat livers were determined by immunoblotting assays using anti Ras antibodies (PanRasAb03, Santa Cruz) as detailed previously (4, 5). Briefly, the livers were homogenized (10% w/v) in 0.32M sucrose, 50 mM Tris HCl, pH 7.4 buffer containing 3mM EDTA, 1 mM EGTA, 5 μg/ml pepstatine, and 5 units/ml opsotonin. Nuclei and cell debris were removed by a 10-minute 1000×g spin. The plasma membrane-enriched fraction was obtained by a 20,000×g 30 minute spin. The resulting pellets were resuspended in homogenization buffer and samples containing 20 μg proteins were used for 12.5% SDS-PAGE (mini gels). The gels were subjected to immunoblotting assays as described previously (4). Each western blot was analyzed 3 times and the data in FIG. 17 represent the means±SD OD of these 3 blots. Ras was also determined by immunohistochemistry.
Background: Immunoblotting shows a protein as a band on a membrane.

Assay [2] concerns human HSC. Put plainly: PDGF-induced migration of human hepatic stellate cells (modified Boyden chamber). It is filed as cell-based. The following applies: PDGF-BB 10 ng/ml, 24 h FTS, read-out: FTS concentration inhibiting (50%) the PDGF-stimulated cell migration. As for the experimental part: (§1) Human HSCs were isolated from wedge sections of normal human liver unsuitable for transplantation as previously reported (6, 7). Briefly, after a combined digestion with collagenase/pronase, HSCs were separated from other liver nonparenchymal cells by ultracentrifugation over gradients of stractan (Cellsep™ isotonic solution, Larex Inc., St. Paul, Minn.). Extensive characterization was performed as described in (7). Cells were cultured on plastic culture dishes (Falcon, Becton Dickinson, Lincoln Park, N.J.) in Iscove's modified Dulbecco's medium supplemented with 0.6 U/ml insulin, 2.0 mmol/L glutamine, 0.1 mmol/L nonessential amino acids, 1.0 mmol/L sodium pyruvate, antibiotic antifungal solution (all provided by Gibco Laboratories, Grand Island, N.Y.) and 20% fetal bovine serum (Imperial Laboratories, Andover, U.K.). Experiments described in this study were performed on cells between third and fifth serial passages (1:3 split ratio) using three independent cell lines.
Cell migration was carried out as previously described (9, 10). […] After fixing in 96% methanol and staining with Harris' hematoxylin solution, cells that migrated to the underside of the filters were quantitated as the mean number of cells in 10 high-power fields (HPF). […] Possible cytotoxic effects were monitored by the trypan blue exclusion test.

Assay [3] concerns acute experimental autoimmune encephalomyelitis (EAE) in SJL/J mice. The assay can be described thus: Acute EAE in SJL/J mice, clinical signs. It is filed as in vivo, mouse. As to conditions: compared to controls. As for the experimental part:
Induction of acute EAE was based on a modification of Bernard's protocol (13). Briefly, equal volumes of MSCH (10 mg/ml in PBS) and complete Freud's adjuvant (CFA) enriched with Mycobacterium tuberculosis H37Ra (6 mg/ml) (Difco Laboratories, Detroit, Mich.) were homogenized in a blender. For each mouse, 0.1 ml (0.5 mg) of the emulsion were injected s.c. into the four footpads. Immediately thereafter and 2 days later, mice were injected i.v. with Bordetella pertussis (2.7×10^9 organisms per mouse) (Rafa Laboratories, Jerusalem, Israel). Animals were examined daily for signs of disease. The first clinical signs appeared on day 10-12 post immunization and were scored according to the following six point scale: 0: no abnormality; 1: mild tail weakness (floppy tail); 2: tail paralysis; 3: tail paralysis and hind leg paresis; 4: hind leg paralysis or mild forelimb weakness; 5: quadriplegia or moribund state; 6: death.
FTS (as powder) was diluted in chloroform (35.8 mg/ml of FTS=0.1 M) and kept in aliquods. The content (25 μl) of one aliquod was evaporated under nitrogen and then disolved in 6 μl absolute ethanol and 7 μl of 1N NaOH; 890 μl of PBS were subsequently added. Each mouse received 0.1 ml of this solution daily (0.1 mg/mouse or 5 mg/kg) intraperitoneally (i.p.).

The test system of assay [4] is lymphocytes from draining lymph nodes of EAE SJL mice. The assay can be described thus: Ex vivo proliferative responses of lymph node lymphocytes from FTS-treated EAE mice. The format is in vivo, mouse. As to conditions: for proliferative response of lymphocytes (cpm): FTS 5 mg/Kg i.p. daily, day 10.
The subject of assay [5] is human HSC. Put plainly: PDGF-stimulated DNA synthesis ([3H]TdR) in human hepatic stellate cells. The format is cell-based. As to conditions: PDGF-BB 10 ng/ml; 24 h FTS. The procedure: as §1
DNA synthesis was measured as the amount of [Methyl-^3H]thymidine ([^3 H]TdR) incorporated into trichloroacetic acid-precipitable material. […] At the end of the pulsing period, [^3H]TdR incorporation into cellular DNA was measured as previously reported (8). Cell number was determined in three separate wells from each dish and results were expressed as cpm/10^5 cells.

Where [6] appears, read: FTS-treated mice compared to controls.

Molecules are shown by their SMILES.

On to `CC(C)=CCC/C(C)=C/CC/C(C)=C/CSc1ccccc1C(=O)O` [FTS, farnesyl thiosalicylic acid], for which, in assay [1] (FTS treatment), the “decrease in Ras expression in the livers of TAA-treated rats” value is reported as 70%. For the same compound, the “Ras levels in liver membranes, fold higher than control group” value in assay [1] (TAA+FTS treated group, TAA alone 17.6±2.0-fold) came to 4.9±1.2 fold. Further, the IC50 in assay [2] was in the range of 2 to 2.5 µM. Also, the “clinical course of EAE (FIG. 1)” value in assay [3] was “significantly ameliorated”. In assay [4] (setting [6]), the “change of reactivity to ConA” value was “no change of reactivity”. Moreover, the “decrease in the reactivity of lymphocytes to GMBP” value in assay [4] (setting [6]) came out at 83%. Besides, the “decrease in the reactivity of lymphocytes to PLP-peptide” value in assay [4] (setting [6]) is 72%. Further, in assay [4] (setting [6]), the “decrease of the reactivity to PPD and to LPS” value is 50-57%. The “proliferative response of lymphocytes (cpm)” value is recorded as 7,864 ± 636 cpm in assay [4] (antigen: GMBP); 8,901 ± 2,014 cpm in assay [4] (antigen: PLP); 27,342 ± 3,627 cpm in assay [4] (antigen: PPD); 4,266 ± 508 cpm in assay [4] (antigen: none); 86,870 ± 7,483 cpm in assay [4] (mitogen: ConA); 45,196 ± 4,246 cpm in assay [4] (mitogen: LPS). For the same compound, the “stimulation index (S.I.)” value was 1.8 in assay [4] (antigen: GMBP, FTS-treated EAE mice); 2.1 in assay [4] (antigen: PLP, FTS-treated EAE mice); 6.4 in assay [4] (antigen: PPD, FTS-treated EAE mice); 20.4 in assay [4] (mitogen: ConA, FTS-treated EAE mice); 10.6 in assay [4] (mitogen: LPS, FTS-treated EAE mice). Moreover, the “reduction in response to myelin specific antigens” value in assay [4] (ex vivo, FTS-treated EAE mice) is greater than 78%. In assay [5], the “FTS concentration affecting PDGF-stimulated 3H-thymidine incorporation into DNA” value lay within 25 to 50 µM.
